Tests used:
[1] = target: yeast farnesyl-pyrophosphate synthase (Saccharomyces cerevisiae, UniProt P08524); conditions: substrate of yeast farnesyl-pyrophosphate synthase
[2] = test system: Phytophthora infestans (Plant affected: tomato); type: in vivo; conditions: concentration at which an efficacy of 50% was achieved, protective
[3] = target: farnesyl-pyrophosphate synthase (Saccharomyces cerevisiae, UniProt P08524); experiment: farnesyl-pyrophosphate synthase inhibition assay (coupled assay, malachite green, 384-well MTP); type: biochemical; conditions: read-out: p150 (converted)
Text: A preferred method exploits the fact that two pyrophosphate molecules are liberated in the farnesyl-pyrophosphate synthase reaction. The activity, or the decrease or increase in activity, of the polypeptide according to the invention can thus be determined by enzymatically cleaving the pyrophosphate by means of inorganic pyrophosphatase and subsequently detecting the orthophosphate which has been liberated, using a phosphate detection reagent. The lower, or inhibited, activity of the polypeptide according to the invention is monitored with reference to the photospectrometric determination of the decrease or increase, of the orthophosphate which has been liberated. The concentration of phosphate which has been liberated can then be determined with a phosphate detection reagent at an absorption maximum at 620 nm.
The measurement can also be carried out in formats conventionally used for HTS or UHTS assays, for example in microtitre plates, into which for example a total volume of 5 to 50 μl is introduced per reaction or per well and the individual components are present in one of the above-stated final concentrations (cf. Example 2). […] The polypeptide according to the invention is then added in the abovementioned assay buffer containing the auxiliary enzyme inorganic pyrophosphatase, which is required for the coupled assay, thus starting the reaction. The mixture is then incubated for example for up to 40 minutes at a suitable temperature, and the increase in absorption is measured at 620 nm.
A further measurement is carried out in a corresponding mixture, but without addition of a candidate molecule and without addition of a polypeptide according to the invention (negative control). Another measurement, in turn, is carried out in the absence of a candidate molecule, but in the presence of the polypeptide according to the invention (positive control). The negative and the positive controls thus provide the reference values for the mixtures in the presence of a candidate molecule.
A pI50 value of 8, for example, corresponds to half the maximum inhibition of the enzyme at a concentration of 10 nM.
384-well microtitre plates from Greiner were used for identifying farnesyl-pyrophosphate synthase modulators.
The negative control was pipetted into the first column.
The positive control was pipetted into the second column.
A test substance in a concentration of 2 μM in DMSO was introduced into the remaining columns, 5 μl of the assay buffer being used for diluting the substance to a volume of. […] This was followed by incubation at room temperature for 40 minutes. The reaction was subsequently quenched by addition of 50 μl of malachite green solution (three parts of 0.025% malachite green solution (in water) were mixed with one part of 2% ammonium heptamolybdate solution (in 4 M HCl) and 39 parts of this solution were mixed with one part of 7.5% Tween 20 (in water) immediately prior to testing) and the mixture was incubated for 90 minutes at room temperature. The orthophosphate generated during the reaction was measured by determining the absorption at 620 nm in a Tecan […]luor Plus suitable for MTPs.

[4] = test system: Phytophthora infestans (Plant affected: barley); type: in vivo; conditions: concentration at which an efficacy of 50% was achieved, protective
[5] = test system: Sphaerotheca fuliginea (plant affected: cucumber); experiment: protective action for plants (spray, inoculation); type: in vivo; conditions: concentration for 50% efficacy
Description: (§1) The effect, on fungi, of compounds found with the aid of a method according to the invention can also be assayed by testing their protective action for plants. To this end a suitable active substance preparation is prepared. For example 1 part by weight of active substance is mixed with, for example, 24.5 parts by weight of acetone and 24.5 parts by weight of dimethylformamide and 1 part by weight of alkylaryl polyglycol ether as emulsifier, and the concentrate is diluted to the desired concentration.
(§2) To test for protective action, young plants are sprayed with the active substance preparation. After the spray coating has dried on, the plants are inoculated with an aqueous suspension (conidia suspension) of a fungus and then remain for 1 day in an incubation chamber at approximately 20° C. and 100% relative atmospheric humidity.
(§3) The plants are then placed in a greenhouse at approx. 12° C. and a relative atmospheric humidity of approx. 90%.
(§4) The test is evaluated 1 to 12 days after the inoculation. 0% means an efficacy which corresponds to that of the control, while an efficacy of 100% means that no disease is observed.
(§5) The examples in question can be seen from the fact that an affected plant has been stated.

[6] = test system: Alternaria solani (plant affected: tomato); experiment: protective action for plants (spray, inoculation); type: in vivo; conditions: concentration for 50% efficacy
Description: as §1, §2, §3, §4, §5

[7] = test system: Erysiphe graminis (plant affected: barley); experiment: protective action for plants (spray, inoculation); type: in vivo; conditions: concentration for 50% efficacy
Description: as §1, §2, §3, §4, §5

[8] = test system: Leptosphaeria nodorum (plant affected: wheat); experiment: protective action for plants (spray, inoculation); type: in vivo; conditions: concentration for 50% efficacy
Description: as §1, §2, §3, §4, §5

[9] = test system: Pyricularia oryzae (plant affected: rice); type: in vivo; conditions: concentration for 50% efficacy, protective
[10] = substrate: C=C(C)CCO[P@@](=O)(O)OP(=O)(O)O; experiment: purified protein, by the assay type; conditions: other: substrate of yeast farnesyl-pyrophosphate synthase

CC(C)=CCOP(=O)(O)OP(=O)(O)O [dimethylallyl pyrophosphate]
Km [1]: 36 µM

CC(Oc1ccccc1)C(=O)Nc1cc(C(=O)N[C@@H](Cc2ccccc2)C(=O)O)ccc1N1CCN(C(c2ccccc2)c2ccccc2)CC1 (some centres unmarked) [Example 3]
ED50 [2]: 500 ppm
IC50 [3]: 31.6 µM
ED50 [4]: 500 ppm

CC(=O)Nc1nc(-c2ccccc2OCC(N)=O)cc(-c2cccc(NC(=O)c3ccc([N+](=O)[O-])cc3)c2)c1C#N [Example 2]
IC50 [3]: 31.6 µM

CC(C)(CN)CN(C(=O)c1cccs1)c1ccc(-c2ccc(N3CCN(c4ccccn4)CC3)c(NC(=O)CCC3CCCC3)c2)cc1 [Example 4]
ED50 [2]: 500 ppm
IC50 [3]: 39.8 µM
ED50 [4]: 500 ppm

COc1ccc(CN(CC(C)(C)CN)C(=O)c2cccc(C)c2)cc1-c1ccc(N2CCC(Cc3ccccc3)CC2)c(NC(=O)c2cccs2)c1 [Example 5]
ED50 [2]: 548 ppm
IC50 [3]: 25.1 µM
ED50 [5]: 548 ppm
ED50 [6]: 548 ppm
ED50 [7]: 548 ppm
ED50 [8]: 548 ppm
ED50 [9]: 548 ppm

CC(=O)[n+]1ccc(-c2cc[n+](C(C)=O)cc2)cc1 [Example 1]
IC50 [3]: 7.41 µM

B1: yeast farnesyl-pyrophosphate synthase (Saccharomyces cerevisiae S288C) (protein)
chain: MASEKEIRRERFLNVFPKLVEELNASLLAYGMPKEACDWYAHSLNYNTPGGKLNRGLSVVDTYAILSNKTVEQLGQEEYEKVAILGWCIELLQAYFLVADDMMDKSITRRGQPCWYKVPEVGEIAINDAFMLEAAIYKLLKSHFRNEKYYIDITELFHEVTFQTELGQLMDLITAPEDKVDLSKFSLKKHSFIVTFKTAYYSFYLPVALAMYVAGITDEKDLKQARDVLIPLGEYFQIQDDYLDCFGTPEQIGKIGTDIQDNKCSWVINKALELASAEQRKTLDENYGKKDSVAEAKCKKIFNDLKIEQLYHEYEESIAKDLKAKISQVDESRGFKADVLTAFLNKVYKRSK
Km [10]: 49 µM

From patent publication US20040219626A1, “Method for identifying fungicidally active compounds” (priority 2002, published 2004)
